Tested on: SK-BR-3 cells
Assay: Release of TIP-2 antigen into culture media of Taxol-treated cells (Western blot)
Format: cell-based, human
Conditions: SK-BR-3 cells treated with increasing amounts of Taxol (5.5-88 uM)
Experimental: The release of TIP-2 antigen into cell culture media of SK-BR-3 cells treated with different concentration of Taxol. The lines are as follows (from left to right): 1) SK-BR-3 cell lysate prepared form approximately 70,000 cells; 2) empty lane; 3) Taxol, 88 uM added to 35 mm tissue plate containing approximately 250,000 cells; 4) same with Taxol, 44 uM; 5) same with Taxol, 22 uM; 7) same with Taxol, 11 uM; 8) same with Taxol, 5.5 uM; 9) cell lysate prepared from cells which were not treated with Taxol; 10) lysate prepared from the residual dead cells' remnants after treatment with Taxol, 88 uM.
Using a specific fusion partner cell line MFP-2 were developed two fully human antibodies to breast and prostate cancer-associated antigens. Both antigens were reactive with a 42 kDa-protein target, which was identified through SEREX technology as Ga-interacting protein, C terminus or Tax interacting protein, clone 2. This protein is specifically overexpressed in three human breast cancer cell lines, SK-BR-3, MCF-7 and ZR-1-75, has very low if any expression level in human prostate cancer lines, PC-3, LNCaP and DU-145 and no expression in two human fibroblast cell lines. […] Normal breast epithelia were negative for staining with anti-TIP-2 antibodies as was benign prostate hyperplasia (BPH) tissue. […]

## CC(=O)O[C@H]1C(=O)[C@@]2(C)[C@H]([C@H](OC(=O)c3ccccc3)[C@]3(O)C[C@H](OC(=O)[C@H](O)[C@@H](NC(=O)c4ccccc4)c4ccccc4)C(C)=C1C3(C)C)[C@]1(OC(C)=O)CO[C@@H]1C[C@@H]2O [Taxol]
  release of TIP-2 antigen into the media: TIP-2 antigen released into the media in a dose dependent manner

From patent publication US7820400B2, “Tumor-associated marker” (The Trustees of Columbia University in the City of New York, priority 2000, dated 2010)
